Measured values from the supplement of paper PMC10307832.

Assays:
Assay in all cases: relative viability (nuclei count vs DMSO), 5 days (fraction); higher = more cells survive
NCI-H441 = tested on: NCI-H441
Procedure, shortened: (§1)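 Values are medians from duplicate plates. Each reflects relative viability, defined as the nuclei count of treated wells over that of vehicle wells. Lung cancer cell lines in 1536-well plates were pin-tool dosed one day after seeding with one drug alone or with a fixed anchor-drug dose plus five library-drug doses (not always all listed) in √10 steps, then fixed, stained and imaged at 4× after 5 days.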

NCI-H2405 = tested on: NCI-H2405
Procedure, shortened: as §1

NCI-H1437 = tested on: NCI-H1437
Procedure, shortened: as §1

NCI-H2087 = tested on: NCI-H2087
Procedure, shortened: as §1

ChaGo-K-1 = tested on: ChaGo-K-1
Procedure, shortened: as §1

NCI-H2347 = tested on: NCI-H2347
Procedure, shortened: as §1

NCI-H3122 = tested on: NCI-H3122
Procedure, shortened: as §1

NCI-H520 = tested on: NCI-H520
Procedure, shortened: as §1

NCI-H23 = tested on: NCI-H23
Procedure, shortened: as §1

NCI-H2009 = tested on: NCI-H2009
Procedure, shortened: as §1

EKVX = tested on: EKVX
Procedure, shortened: as §1

NCI-H322M = tested on: NCI-H322M
Procedure, shortened: as §1

NCI-H358 = tested on: NCI-H358
Procedure, shortened: as §1

NCI-H1755 = tested on: NCI-H1755
Procedure, shortened: as §1

BEN = tested on: BEN
Procedure, shortened: as §1

NCI-H1666 = tested on: NCI-H1666
Procedure, shortened: as §1

NCI-H2126 = tested on: NCI-H2126
Procedure, shortened: as §1

H3255 = tested on: H3255
Procedure, shortened: as §1

SK-LU-1 = tested on: SK-LU-1
Procedure, shortened: as §1

A-427 = tested on: A-427
Procedure, shortened: as §1

UMC-11 = tested on: UMC-11
Procedure, shortened: as §1

NCI-H1650 = tested on: NCI-H1650
Procedure, shortened: as §1

NCI-H727 = tested on: NCI-H727
Procedure, shortened: as §1

Which relative viability (NCI-H441; first compound 0.08 µM) does the source give for `Oc1nc(-c2ccc(C(F)(F)F)cc2)nc2c1CSCC2` [XAV939] + Cc1nc(Nc2ncc(C(=O)Nc3c(C)cccc3Cl)s2)cc(N2CCN(CCO)CC2)n1 [Dasatinib] (partner 0.075 µM) here?
Its relative viability is 0.602.

What about the relative viability (NCI-H441; first compound 0.253 µM) of the same compound?
Its relative viability is 0.66.

And the relative viability (NCI-H441; first compound 0.8 µM)?
Its relative viability is 0.779.

And the relative viability (NCI-H441; first compound 2.53 µM)?
The relative viability was 0.536.

What about the relative viability (NCI-H2405; first compound 0.08 µM) of the same compound?
The relative viability was 0.221.

And the relative viability (NCI-H2405; first compound 0.253 µM)?
Its relative viability is 0.225.

And the relative viability (NCI-H2405; first compound 0.8 µM)?
The relative viability was 0.214.

And the relative viability (NCI-H2405; first compound 2.53 µM)?
Its relative viability is 0.229.

What about the relative viability (NCI-H1437; first compound 0.08 µM) of the same compound?
Its relative viability is 0.353.

What about the relative viability (NCI-H1437; first compound 0.253 µM) of the same compound?
The relative viability was 0.488.

And the relative viability (NCI-H1437; first compound 0.8 µM)?
The relative viability was 0.416.

And the relative viability (NCI-H1437; first compound 2.53 µM)?
Its relative viability is 0.654.

And the relative viability (NCI-H2087; first compound 0.08 µM)?
The relative viability was 1.11.

What about the relative viability (NCI-H2087; first compound 0.253 µM) of the same compound?
Its relative viability is 0.623.

And the relative viability (NCI-H2087; first compound 0.8 µM)?
Its relative viability is 0.891.

What about the relative viability (NCI-H2087; first compound 2.53 µM) of the same compound?
The relative viability was 0.689.

What about the relative viability (ChaGo-K-1; first compound 0.08 µM) of the same compound?
The relative viability was 0.654.

And the relative viability (ChaGo-K-1; first compound 0.253 µM)?
Its relative viability is 0.639.

And the relative viability (ChaGo-K-1; first compound 0.8 µM)?
The relative viability was 0.587.

What about the relative viability (ChaGo-K-1; first compound 2.53 µM) of the same compound?
Its relative viability is 0.56.

What about the relative viability (NCI-H2347; first compound 0.08 µM) of the same compound?
The relative viability was 0.258.

And the relative viability (NCI-H2347; first compound 2.53 µM)?
Its relative viability is 0.335.

And the relative viability (NCI-H3122; first compound 0.08 µM)?
The relative viability was 0.877.

And the relative viability (NCI-H3122; first compound 0.253 µM)?
The relative viability was 0.786.

And the relative viability (NCI-H3122; first compound 0.8 µM)?
Its relative viability is 0.789.

And the relative viability (NCI-H3122; first compound 2.53 µM)?
The relative viability was 0.181.

What about the relative viability (NCI-H520; first compound 0.08 µM) of the same compound?
Its relative viability is 0.179.

What about the relative viability (NCI-H520; first compound 0.253 µM) of the same compound?
The relative viability was 0.17.

And the relative viability (NCI-H520; first compound 0.8 µM)?
Its relative viability is 0.152.

And the relative viability (NCI-H520; first compound 2.53 µM)?
Its relative viability is 0.193.

And the relative viability (NCI-H23; first compound 0.08 µM)?
Its relative viability is 0.872.

And the relative viability (NCI-H23; first compound 0.253 µM)?
Its relative viability is 0.7.

And the relative viability (NCI-H23; first compound 0.8 µM)?
Its relative viability is 0.895.

And the relative viability (NCI-H23; first compound 2.53 µM)?
Its relative viability is 0.722.

And the relative viability (NCI-H2009; first compound 0.08 µM)?
Its relative viability is 0.31.

And the relative viability (NCI-H2009; first compound 0.253 µM)?
Its relative viability is 0.271.

What about the relative viability (NCI-H2009; first compound 0.8 µM) of the same compound?
The relative viability was 0.205.

And the relative viability (NCI-H2009; first compound 2.53 µM)?
Its relative viability is 0.208.

What about the relative viability (EKVX; first compound 0.08 µM) of the same compound?
The relative viability was 0.444.

What about the relative viability (EKVX; first compound 0.8 µM) of the same compound?
Its relative viability is 0.486.

What about the relative viability (EKVX; first compound 2.53 µM) of the same compound?
Its relative viability is 0.228.

What about the relative viability (NCI-H322M; first compound 0.08 µM) of the same compound?
The relative viability was 0.241.

And the relative viability (NCI-H322M; first compound 0.253 µM)?
The relative viability was 0.254.

And the relative viability (NCI-H322M; first compound 0.8 µM)?
The relative viability was 0.227.

What about the relative viability (NCI-H322M; first compound 2.53 µM) of the same compound?
The relative viability was 0.22.

What about the relative viability (NCI-H358; first compound 0.08 µM) of the same compound?
Its relative viability is 0.16.

And the relative viability (NCI-H358; first compound 0.253 µM)?
Its relative viability is 0.166.

What about the relative viability (NCI-H358; first compound 0.8 µM) of the same compound?
The relative viability was 0.175.

What about the relative viability (NCI-H358; first compound 2.53 µM) of the same compound?
The relative viability was 0.172.

And the relative viability (NCI-H1755; first compound 0.08 µM)?
Its relative viability is 0.484.

What about the relative viability (NCI-H1755; first compound 0.253 µM) of the same compound?
The relative viability was 0.324.

And the relative viability (NCI-H1755; first compound 0.8 µM)?
The relative viability was 0.424.

What about the relative viability (NCI-H1755; first compound 2.53 µM) of the same compound?
Its relative viability is 0.413.

And the relative viability (BEN; first compound 0.08 µM)?
The relative viability was 0.294.

And the relative viability (BEN; first compound 0.253 µM)?
Its relative viability is 0.299.

And the relative viability (BEN; first compound 0.8 µM)?
The relative viability was 0.32.

What about the relative viability (BEN; first compound 2.53 µM) of the same compound?
Its relative viability is 0.287.

What about the relative viability (NCI-H1666; first compound 0.08 µM) of the same compound?
Its relative viability is 0.921.

And the relative viability (NCI-H1666; first compound 0.253 µM)?
The relative viability was 0.801.

And the relative viability (NCI-H1666; first compound 0.8 µM)?
The relative viability was 0.761.

What about the relative viability (NCI-H1666; first compound 2.53 µM) of the same compound?
The relative viability was 0.744.

What about the relative viability (NCI-H2126; first compound 0.08 µM) of the same compound?
Its relative viability is 0.544.

What about the relative viability (NCI-H2126; first compound 0.253 µM) of the same compound?
The relative viability was 0.403.

And the relative viability (NCI-H2126; first compound 0.8 µM)?
The relative viability was 0.405.

And the relative viability (NCI-H2126; first compound 2.53 µM)?
Its relative viability is 0.33.

And the relative viability (H3255; first compound 0.08 µM)?
The relative viability was 0.341.

What about the relative viability (H3255; first compound 0.253 µM) of the same compound?
The relative viability was 0.373.

What about the relative viability (H3255; first compound 0.8 µM) of the same compound?
Its relative viability is 0.313.

What about the relative viability (H3255; first compound 2.53 µM) of the same compound?
Its relative viability is 0.448.

What about the relative viability (SK-LU-1; first compound 0.08 µM) of the same compound?
Its relative viability is 0.166.

And the relative viability (SK-LU-1; first compound 0.253 µM)?
The relative viability was 0.147.

And the relative viability (SK-LU-1; first compound 0.8 µM)?
The relative viability was 0.211.

And the relative viability (SK-LU-1; first compound 2.53 µM)?
The relative viability was 0.188.

What about the relative viability (A-427; first compound 0.08 µM) of the same compound?
The relative viability was 0.838.

What about the relative viability (A-427; first compound 0.253 µM) of the same compound?
The relative viability was 0.677.

What about the relative viability (A-427; first compound 0.8 µM) of the same compound?
The relative viability was 0.667.

What about the relative viability (A-427; first compound 2.53 µM) of the same compound?
Its relative viability is 0.557.

And the relative viability (UMC-11; first compound 0.08 µM)?
Its relative viability is 0.542.

And the relative viability (UMC-11; first compound 0.253 µM)?
Its relative viability is 0.396.

And the relative viability (UMC-11; first compound 0.8 µM)?
The relative viability was 0.427.

And the relative viability (UMC-11; first compound 2.53 µM)?
The relative viability was 0.408.

What about the relative viability (NCI-H1650; first compound 0.08 µM) of the same compound?
The relative viability was 0.331.

What about the relative viability (NCI-H1650; first compound 0.253 µM) of the same compound?
The relative viability was 0.323.

And the relative viability (NCI-H1650; first compound 0.8 µM)?
The relative viability was 0.263.

And the relative viability (NCI-H1650; first compound 2.53 µM)?
The relative viability was 0.288.

And the relative viability (NCI-H727; first compound 0.08 µM)?
Its relative viability is 0.332.

And the relative viability (NCI-H727; first compound 0.253 µM)?
The relative viability was 0.452.

And the relative viability (NCI-H727; first compound 0.8 µM)?
Its relative viability is 0.442.

And the relative viability (NCI-H727; first compound 2.53 µM)?
The relative viability was 0.405.
